ChEMBL document CHEMBL5500380, “Recent discovery and development of AXL inhibitors as antitumor agents” (Eur J Med Chem, 2024)

Legend:
[1] = biological target: T1, Tyrosine-protein kinase receptor UFO (Homo sapiens, UniProt P30530); test: Inhibition of AXL (unknown origin)
T1 sequence (P30530 whole entry): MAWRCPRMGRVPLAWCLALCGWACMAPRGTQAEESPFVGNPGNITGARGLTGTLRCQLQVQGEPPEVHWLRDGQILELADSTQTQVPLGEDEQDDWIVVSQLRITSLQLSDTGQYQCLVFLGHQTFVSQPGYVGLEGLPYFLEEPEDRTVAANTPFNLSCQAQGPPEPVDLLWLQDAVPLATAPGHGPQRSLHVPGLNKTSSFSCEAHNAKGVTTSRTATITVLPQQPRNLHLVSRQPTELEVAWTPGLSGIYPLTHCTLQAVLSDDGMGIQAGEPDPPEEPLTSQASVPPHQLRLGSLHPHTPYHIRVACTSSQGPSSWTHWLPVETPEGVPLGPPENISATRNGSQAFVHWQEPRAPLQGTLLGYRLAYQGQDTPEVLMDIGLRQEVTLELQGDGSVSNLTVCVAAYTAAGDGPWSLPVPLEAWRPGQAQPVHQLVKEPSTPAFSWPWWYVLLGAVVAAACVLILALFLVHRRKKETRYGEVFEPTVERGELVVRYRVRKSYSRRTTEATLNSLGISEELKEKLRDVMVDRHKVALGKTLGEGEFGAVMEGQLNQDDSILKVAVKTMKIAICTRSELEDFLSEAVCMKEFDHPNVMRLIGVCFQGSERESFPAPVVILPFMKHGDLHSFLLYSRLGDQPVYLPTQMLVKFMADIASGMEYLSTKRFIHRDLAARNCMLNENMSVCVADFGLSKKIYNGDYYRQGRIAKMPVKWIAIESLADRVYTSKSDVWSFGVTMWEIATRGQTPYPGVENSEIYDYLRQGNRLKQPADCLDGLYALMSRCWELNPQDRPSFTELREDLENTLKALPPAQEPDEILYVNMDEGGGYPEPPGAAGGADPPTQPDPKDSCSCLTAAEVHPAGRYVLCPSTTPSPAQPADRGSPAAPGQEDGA

Aurora kinase A = biological target: T2, Aurora kinase A (Homo sapiens, UniProt O14965); test: Inhibition of AURORA-A (unknown origin)
T2 sequence (O14965 whole entry): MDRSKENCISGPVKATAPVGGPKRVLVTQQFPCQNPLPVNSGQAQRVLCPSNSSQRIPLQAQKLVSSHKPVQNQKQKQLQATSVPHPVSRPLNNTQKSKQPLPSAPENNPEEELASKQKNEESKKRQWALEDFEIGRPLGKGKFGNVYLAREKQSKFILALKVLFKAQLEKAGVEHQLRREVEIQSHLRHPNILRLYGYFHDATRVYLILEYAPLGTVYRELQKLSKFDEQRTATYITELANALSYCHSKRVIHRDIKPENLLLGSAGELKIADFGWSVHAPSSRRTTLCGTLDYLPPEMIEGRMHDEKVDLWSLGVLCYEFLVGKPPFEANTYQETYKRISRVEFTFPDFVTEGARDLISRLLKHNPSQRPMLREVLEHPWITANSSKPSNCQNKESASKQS

[2] = biological target: Epithelial discoidin domain-containing receptor 1 (Homo sapiens, UniProt Q08345); test: Inhibition of DDR1 (unknown origin)
Aurora kinase B = Aurora kinase B (Homo sapiens, UniProt Q96GD4); test: Inhibition of AURORA-B (unknown origin)
[3] = biological target: T3, Tyrosine-protein kinase Mer (Homo sapiens) (UniProt Q12866); test: Inhibition of MER (unknown origin) at 100 nM relative to control
T3 sequence (whole entry): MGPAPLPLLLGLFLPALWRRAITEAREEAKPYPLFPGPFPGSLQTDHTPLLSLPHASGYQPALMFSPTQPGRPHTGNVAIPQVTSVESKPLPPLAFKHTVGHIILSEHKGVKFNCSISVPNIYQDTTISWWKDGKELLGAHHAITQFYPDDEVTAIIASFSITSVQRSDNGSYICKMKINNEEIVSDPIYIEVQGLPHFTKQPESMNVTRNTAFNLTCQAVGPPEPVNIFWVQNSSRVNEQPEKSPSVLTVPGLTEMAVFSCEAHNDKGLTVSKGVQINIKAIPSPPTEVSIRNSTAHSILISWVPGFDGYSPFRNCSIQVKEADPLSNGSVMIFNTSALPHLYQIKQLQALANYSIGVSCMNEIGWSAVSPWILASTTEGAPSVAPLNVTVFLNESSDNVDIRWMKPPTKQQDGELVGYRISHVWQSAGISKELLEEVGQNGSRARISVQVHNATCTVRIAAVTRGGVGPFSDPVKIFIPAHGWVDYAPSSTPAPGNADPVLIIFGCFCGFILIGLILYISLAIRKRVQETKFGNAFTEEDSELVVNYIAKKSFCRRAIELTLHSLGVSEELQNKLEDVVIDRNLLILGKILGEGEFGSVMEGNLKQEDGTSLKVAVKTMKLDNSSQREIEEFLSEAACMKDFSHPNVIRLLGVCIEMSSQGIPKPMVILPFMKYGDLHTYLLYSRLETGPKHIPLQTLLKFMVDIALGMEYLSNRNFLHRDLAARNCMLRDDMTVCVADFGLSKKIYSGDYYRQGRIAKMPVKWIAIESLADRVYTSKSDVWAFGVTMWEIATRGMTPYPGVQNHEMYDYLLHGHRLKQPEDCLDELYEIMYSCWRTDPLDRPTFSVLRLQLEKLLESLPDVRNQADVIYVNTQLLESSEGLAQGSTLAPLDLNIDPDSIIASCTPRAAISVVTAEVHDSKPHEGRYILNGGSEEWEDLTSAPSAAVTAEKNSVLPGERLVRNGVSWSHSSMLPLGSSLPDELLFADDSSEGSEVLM

[4] = biological target: T4, Tyrosine-protein kinase receptor TYRO3 (Homo sapiens) (UniProt Q06418); test: Inhibition of TYRO3 (unknown origin) at 100 nM relative to control
T4 sequence (whole entry): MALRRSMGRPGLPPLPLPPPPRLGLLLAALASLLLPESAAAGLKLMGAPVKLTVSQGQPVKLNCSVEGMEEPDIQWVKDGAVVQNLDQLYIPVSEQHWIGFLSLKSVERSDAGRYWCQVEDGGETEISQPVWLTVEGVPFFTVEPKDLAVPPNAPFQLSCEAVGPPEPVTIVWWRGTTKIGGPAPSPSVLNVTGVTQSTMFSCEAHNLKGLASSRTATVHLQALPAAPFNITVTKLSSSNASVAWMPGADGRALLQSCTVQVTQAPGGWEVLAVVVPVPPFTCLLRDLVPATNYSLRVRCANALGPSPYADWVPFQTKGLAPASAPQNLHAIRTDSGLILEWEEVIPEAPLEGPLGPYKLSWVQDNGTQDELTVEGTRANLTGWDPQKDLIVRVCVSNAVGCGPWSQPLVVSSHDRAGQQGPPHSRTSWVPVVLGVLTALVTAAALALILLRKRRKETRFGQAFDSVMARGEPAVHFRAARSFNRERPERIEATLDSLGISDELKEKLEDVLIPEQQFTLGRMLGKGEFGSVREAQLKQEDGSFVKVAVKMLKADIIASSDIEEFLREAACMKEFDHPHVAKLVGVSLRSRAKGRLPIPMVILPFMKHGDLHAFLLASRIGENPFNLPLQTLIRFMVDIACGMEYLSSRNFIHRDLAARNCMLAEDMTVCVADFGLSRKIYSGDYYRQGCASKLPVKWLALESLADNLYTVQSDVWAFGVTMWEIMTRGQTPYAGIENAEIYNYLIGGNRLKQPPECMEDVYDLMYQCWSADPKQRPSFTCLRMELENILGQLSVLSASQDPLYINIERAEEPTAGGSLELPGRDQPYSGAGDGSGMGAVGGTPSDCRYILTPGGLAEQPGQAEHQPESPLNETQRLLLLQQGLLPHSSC

[5] = biological target: Hepatocyte growth factor receptor (Homo sapiens) (UniProt P08581); test: Inhibition of c-MET (unknown origin) at 100 nM relative to control
[6] = biological target: T1, Tyrosine-protein kinase receptor UFO; test: Inhibition of AXL (unknown origin) by HTRF kinase assay

Chain of Hepatocyte growth factor receptor (Homo sapiens) (P08581 whole entry): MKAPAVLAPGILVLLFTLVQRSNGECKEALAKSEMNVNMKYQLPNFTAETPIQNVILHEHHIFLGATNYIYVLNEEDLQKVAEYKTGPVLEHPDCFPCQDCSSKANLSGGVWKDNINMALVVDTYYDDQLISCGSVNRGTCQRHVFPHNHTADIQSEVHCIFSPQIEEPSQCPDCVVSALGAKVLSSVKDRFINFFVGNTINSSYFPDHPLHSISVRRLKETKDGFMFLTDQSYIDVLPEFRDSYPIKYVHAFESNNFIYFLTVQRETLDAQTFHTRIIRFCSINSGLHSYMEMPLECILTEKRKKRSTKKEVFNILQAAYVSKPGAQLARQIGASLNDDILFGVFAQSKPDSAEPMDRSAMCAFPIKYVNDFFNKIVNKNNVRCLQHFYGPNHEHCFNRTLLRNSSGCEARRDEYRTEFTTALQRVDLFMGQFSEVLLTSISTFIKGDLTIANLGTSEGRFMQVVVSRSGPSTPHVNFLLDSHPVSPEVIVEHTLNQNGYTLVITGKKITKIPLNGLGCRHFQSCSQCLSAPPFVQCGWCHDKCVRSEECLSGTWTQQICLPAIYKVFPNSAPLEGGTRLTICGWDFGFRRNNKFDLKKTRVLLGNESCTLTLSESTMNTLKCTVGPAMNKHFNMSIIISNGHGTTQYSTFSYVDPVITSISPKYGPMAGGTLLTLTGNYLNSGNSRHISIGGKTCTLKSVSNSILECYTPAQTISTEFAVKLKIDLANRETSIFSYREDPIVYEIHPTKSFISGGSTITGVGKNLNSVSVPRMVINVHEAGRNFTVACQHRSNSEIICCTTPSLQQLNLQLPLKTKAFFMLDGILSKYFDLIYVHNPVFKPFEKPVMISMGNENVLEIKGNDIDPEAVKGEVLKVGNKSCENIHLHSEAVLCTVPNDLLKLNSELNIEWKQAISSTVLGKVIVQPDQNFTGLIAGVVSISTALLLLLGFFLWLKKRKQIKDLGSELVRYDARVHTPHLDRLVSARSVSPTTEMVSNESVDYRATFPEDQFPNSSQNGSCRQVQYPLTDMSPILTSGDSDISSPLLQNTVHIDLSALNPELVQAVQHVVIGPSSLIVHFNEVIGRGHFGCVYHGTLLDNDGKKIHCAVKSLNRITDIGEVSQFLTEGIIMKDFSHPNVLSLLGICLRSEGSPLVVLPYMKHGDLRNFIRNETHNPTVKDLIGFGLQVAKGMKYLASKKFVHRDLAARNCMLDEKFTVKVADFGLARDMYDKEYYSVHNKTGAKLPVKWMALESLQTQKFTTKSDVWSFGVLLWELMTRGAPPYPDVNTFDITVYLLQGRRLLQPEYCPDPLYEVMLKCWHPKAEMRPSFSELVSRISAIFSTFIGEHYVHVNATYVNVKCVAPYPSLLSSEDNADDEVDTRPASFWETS
Chain of Aurora kinase B (Q96GD4 whole entry): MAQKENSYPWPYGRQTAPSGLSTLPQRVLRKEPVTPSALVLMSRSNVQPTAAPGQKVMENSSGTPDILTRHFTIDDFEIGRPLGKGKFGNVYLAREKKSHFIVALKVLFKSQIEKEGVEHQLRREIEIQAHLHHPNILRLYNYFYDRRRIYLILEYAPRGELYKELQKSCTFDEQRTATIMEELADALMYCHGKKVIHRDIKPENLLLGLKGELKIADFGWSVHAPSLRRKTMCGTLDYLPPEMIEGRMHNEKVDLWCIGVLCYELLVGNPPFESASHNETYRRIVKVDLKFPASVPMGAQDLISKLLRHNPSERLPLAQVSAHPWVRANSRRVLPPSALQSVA
Chain of Epithelial discoidin domain-containing receptor 1 (Q08345 whole entry, the tested form may be a part): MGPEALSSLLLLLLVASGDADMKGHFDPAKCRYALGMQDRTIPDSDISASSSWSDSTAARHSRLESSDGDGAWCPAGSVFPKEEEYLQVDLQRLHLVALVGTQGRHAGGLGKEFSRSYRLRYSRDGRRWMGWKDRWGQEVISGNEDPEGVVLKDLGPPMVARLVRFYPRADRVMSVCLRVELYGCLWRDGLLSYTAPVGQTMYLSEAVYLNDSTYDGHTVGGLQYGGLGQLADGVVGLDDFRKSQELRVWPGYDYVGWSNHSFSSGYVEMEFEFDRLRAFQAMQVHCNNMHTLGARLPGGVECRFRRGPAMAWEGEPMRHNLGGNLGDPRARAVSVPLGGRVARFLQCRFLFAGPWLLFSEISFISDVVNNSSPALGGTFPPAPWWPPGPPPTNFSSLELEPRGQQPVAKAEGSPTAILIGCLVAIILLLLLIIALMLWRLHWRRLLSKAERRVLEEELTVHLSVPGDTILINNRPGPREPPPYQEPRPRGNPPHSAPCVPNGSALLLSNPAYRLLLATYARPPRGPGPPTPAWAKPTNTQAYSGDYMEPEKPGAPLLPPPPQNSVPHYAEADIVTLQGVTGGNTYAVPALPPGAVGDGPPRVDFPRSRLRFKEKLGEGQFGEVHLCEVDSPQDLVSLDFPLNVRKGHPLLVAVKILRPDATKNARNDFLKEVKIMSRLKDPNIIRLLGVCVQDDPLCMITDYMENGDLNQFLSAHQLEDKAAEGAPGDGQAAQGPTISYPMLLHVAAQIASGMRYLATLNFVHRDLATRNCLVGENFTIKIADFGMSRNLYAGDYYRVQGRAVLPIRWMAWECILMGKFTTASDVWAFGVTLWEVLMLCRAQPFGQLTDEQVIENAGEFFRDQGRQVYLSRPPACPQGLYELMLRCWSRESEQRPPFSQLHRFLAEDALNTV

| IC50 [1] | Structure (SMILES) | also measured |
| --- | --- | --- |
| 2600 nM | CN1CCc2ccc(Nc3ncc(Cl)c(Nc4ccccc4S(=O)(=O)N(C)C)n3)cc2C1 | – |
| 1.2 nM | COc1cc2nccc(Oc3ccc(NC(=O)c4c5n(n(-c6cc(F)ccc6F)c4=O)CCCC5)cc3F)c2cc1OC | – |
| 4 nM | CCc1ccc2c(c1)c(=O)c(C(=O)Nc1ccc(Oc3ccnc4cc(OC)c(OC)cc34)c(F)c1)c(C)n2C | IC50 (Aurora kinase A): 192 nM; IC50 [2]: 22.2 nM; IC50 (Aurora kinase B): 114 nM |
| 5.9 nM | COc1cc2ncnc(Oc3ccc(NC(=O)c4c5n(n(-c6cccc(F)c6)c4=O)CCCC5)cc3F)c2cc1OC | – |
| 3.5 nM | COc1cc2nccc(Oc3ccc(NC(=O)c4c5n(n(-c6ccc(F)cc6)c4=O)CCCC5)cc3F)c2cc1OC | inhibition [3]: 100%; inhibition [4]: 71%; inhibition [5]: 98% |
| 9 nM | O=C(Nc1ccc(Oc2ccnc3c2CCN3)c(F)c1)c1c[nH]cc(-c2ccc(F)cc2)c1=O | – |
| – | COc1cc2nccc(Oc3ccc(NC(=O)c4cc5c(n(-c6ccccc6)c4=O)CCCC5=O)nc3)c2cc1OC [TAMNORZATINIB] | IC50 [6]: 0.7 nM |
| 19 nM | Nn1cc(-c2n[nH]c3cc(Cl)c(NC4CCNC4)cc23)cn1 (centres undefined) | – |
